Measured values reported in patent US20250388565A1, “ESTROGEN RECEPTOR ALPHA DEGRADERS AND METHODS OF USE THEREOF” (Relay Therapeutics, Inc., priority 2022, published 2025).

Molecular target: T1, ERα protein (HiBiT-tagged) in ESR1_HiBiT KI MCF7 cells (Homo sapiens, UniProt P03372)
T1 sequence (P03372 1-595): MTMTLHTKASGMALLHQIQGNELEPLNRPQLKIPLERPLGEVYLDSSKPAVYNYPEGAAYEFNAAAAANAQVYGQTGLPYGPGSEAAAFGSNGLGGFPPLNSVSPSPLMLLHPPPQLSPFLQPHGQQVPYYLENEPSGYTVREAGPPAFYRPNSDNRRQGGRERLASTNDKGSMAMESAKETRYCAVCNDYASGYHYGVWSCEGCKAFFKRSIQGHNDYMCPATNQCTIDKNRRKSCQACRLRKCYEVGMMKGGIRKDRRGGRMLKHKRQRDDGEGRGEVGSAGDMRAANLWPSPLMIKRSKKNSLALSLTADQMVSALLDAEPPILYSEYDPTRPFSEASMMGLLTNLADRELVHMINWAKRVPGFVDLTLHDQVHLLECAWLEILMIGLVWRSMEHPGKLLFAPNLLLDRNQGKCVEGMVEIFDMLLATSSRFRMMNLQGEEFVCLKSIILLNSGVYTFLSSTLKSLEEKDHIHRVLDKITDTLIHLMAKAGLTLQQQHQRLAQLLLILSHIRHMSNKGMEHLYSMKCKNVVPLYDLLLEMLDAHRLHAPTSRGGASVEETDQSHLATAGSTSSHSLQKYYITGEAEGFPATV
Assay: Nano Glo HiBiT Lytic Degradation Assay
Type: cell-based
Settings: 6 hours with compound, 14-point dose response 1:3, bell-shape curve fit, half-maximal effect of first Hill model, read-out: MCF7 ESR1 HiBiT - (DC50)
Procedure, shortened: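 ESR1_HiBiT knock-in MCF7 cells were seeded 24 h before treatment, then exposed to compounds for 6 h at 37° C (14-point 1:3 curves, 10 mM top stock, 0.1% DMSO final, duplicates). HiBiT-ERα was read by lytic LgBiT luminescence, background-subtracted and normalized to DMSO. DC50 was taken from the half-maximal point of the first Hill component of a bell-shaped fit.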

Row | DC50 [nM] | Structure (SMILES)
1 | 0.3 | Cc1ccc([C@H]2OCc3cc(O)ccc3[C@H]2c2ccc(N3CCC(CN4CCN(c5ccc6c(c5)CN([C@H]5CCC(=O)NC5=O)C6=O)CC4)CC3)cc2)cc1 [Compound I-354, (S)-3-(5-(4-((1-(4-((3S,4R)-7-hydroxy-3-(p-tolyl)isochroman-4-yl)phenyl)piperidin-4-yl)methyl)piperazin-1-yl)-1-oxoisoindolin-2-yl)piperidine-2,6-dione]
2 | ≥ 10000 | O=C1CC[C@H](N2Cc3cc(N4CCN(CC5CCN(c6ccc([C@H]7c8ccc(O)cc8CO[C@H]7c7cccc(OC(F)(F)F)c7)cc6)CC5)CC4)ccc3C2=O)C(=O)N1 [Compound I-361, (S)-3-(5-(4-((1-(4-((3R,4S)-7-hydroxy-3-(3-(trifluoromethoxy)phenyl)isochroman-4-yl)phenyl)piperidin-4-yl)methyl)piperazin-1-yl)-1-oxoisoindolin-2-yl)piperidine-2,6-dione]
3 | 1 | O=C1CC[C@H](N2Cc3cc(N4CCN(CC5CCN(c6ccc([C@@H]7c8ccc(O)cc8CO[C@@H]7c7cccc(OC(F)(F)F)c7)cc6)CC5)CC4)ccc3C2=O)C(=O)N1 [Compound I-362, (S)-3-(5-(4-((1-(4-((3S,4R)-7-hydroxy-3-(3-(trifluoromethoxy)phenyl)isochroman-4-yl)phenyl)piperidin-4-yl)methyl)piperazin-1-yl)-1-oxoisoindolin-2-yl)piperidine-2,6-dione]
4 | 0.24 | O=C1CC[C@H](N2Cc3cc(N4CCN(CC5CCN(c6ccc([C@@H]7c8ccc(O)cc8CO[C@@H]7c7ccc8c(c7)CCC8)cc6)CC5)CC4)ccc3C2=O)C(=O)N1 [Compound I-365, (S)-3-(5-(4-((1-(4-((3S,4R)-3-(2,3-dihydro-1H-inden-5-yl)-7-hydroxyisochroman-4-yl)phenyl)piperidin-4-yl)methyl)piperazin-1-yl)-1-oxoisoindolin-2-yl)piperidine-2,6-dione]
5 | ≥ 10000 | O=C1CC[C@H](N2Cc3cc(N4CCN(CC5CCN(c6ccc([C@H]7c8ccc(O)cc8CO[C@H]7c7ccc8c(c7)CCC8)cc6)CC5)CC4)ccc3C2=O)C(=O)N1 [Compound I-366, (S)-3-(5-(4-((1-(4-((3R,4S)-3-(2,3-dihydro-1H-inden-5-yl)-7-hydroxyisochroman-4-yl)phenyl)piperidin-4-yl)methyl)piperazin-1-yl)-1-oxoisoindolin-2-yl)piperidine-2,6-dione]
6 | 0.34 | Cc1cc(F)c([C@H]2OCc3cc(O)ccc3[C@H]2c2ccc(N3CCC(CN4CCN(c5ccc6c(c5)CN([C@H]5CCC(=O)NC5=O)C6=O)CC4)CC3)cc2)cc1F [Compound I-369, (S)-3-(5-(4-((1-(4-((3S,4R)-3-(2,5-difluoro-4-methylphenyl)-7-hydroxyisochroman-4-yl)phenyl)piperidin-4-yl)methyl)piperazin-1-yl)-1-oxoisoindolin-2-yl)piperidine-2,6-dione]
7 | 3300 | Cc1cc(F)c([C@@H]2OCc3cc(O)ccc3[C@@H]2c2ccc(N3CCC(CN4CCN(c5ccc6c(c5)CN([C@H]5CCC(=O)NC5=O)C6=O)CC4)CC3)cc2)cc1F [Compound I-370, (S)-3-(5-(4-((1-(4-((3R,4S)-3-(2,5-difluoro-4-methylphenyl)-7-hydroxyisochroman-4-yl)phenyl)piperidin-4-yl)methyl)piperazin-1-yl)-1-oxoisoindolin-2-yl)piperidine-2,6-dione]
8 | 0.17 | Cc1cc(F)ccc1[C@H]1OCc2cc(O)ccc2[C@H]1c1ccc(N2CCC(CN3CCN(c4ccc5c(c4)CN([C@H]4CCC(=O)NC4=O)C5=O)CC3)CC2)cc1 [Compound I-371, (S)-3-(5-(4-((1-(4-((3S,4R)-3-(4-fluoro-2-methylphenyl)-7-hydroxyisochroman-4-yl)phenyl)piperidin-4-yl)methyl)piperazin-1-yl)-1-oxoisoindolin-2-yl)piperidine-2,6-dione]
9 | 27 | Cc1cc(F)ccc1[C@@H]1OCc2cc(O)ccc2[C@@H]1c1ccc(N2CCC(CN3CCN(c4ccc5c(c4)CN([C@H]4CCC(=O)NC4=O)C5=O)CC3)CC2)cc1 [Compound I-372, (S)-3-(5-(4-((1-(4-((3R,4S)-3-(4-fluoro-2-methylphenyl)-7-hydroxyisochroman-4-yl)phenyl)piperidin-4-yl)methyl)piperazin-1-yl)-1-oxoisoindolin-2-yl)piperidine-2,6-dione]
10 | 0.78 | COc1cccc([C@H]2OCc3cc(O)ccc3[C@H]2c2ccc(N3CCC(CN4CCN(c5ccc6c(c5)CN([C@H]5CCC(=O)NC5=O)C6=O)CC4)CC3)cc2)c1 [Compound I-373, (S)-3-(5-(4-((1-(4-((3S,4R)-7-hydroxy-3-(3-methoxyphenyl)isochroman-4-yl)phenyl)piperidin-4-yl)methyl)piperazin-1-yl)-1-oxoisoindolin-2-yl)piperidine-2,6-dione]
11 | 8 | COc1cccc([C@@H]2OCc3cc(O)ccc3[C@@H]2c2ccc(N3CCC(CN4CCN(c5ccc6c(c5)CN([C@H]5CCC(=O)NC5=O)C6=O)CC4)CC3)cc2)c1 [Compound I-374, (S)-3-(5-(4-((1-(4-((3R,4S)-7-hydroxy-3-(3-methoxyphenyl)isochroman-4-yl)phenyl)piperidin-4-yl)methyl)piperazin-1-yl)-1-oxoisoindolin-2-yl)piperidine-2,6-dione]
12 | 0.89 | Cc1cc([C@H]2OCc3cc(O)ccc3[C@H]2c2ccc(N3CCC(CN4CCN(c5ccc6c(c5)CN([C@H]5CCC(=O)NC5=O)C6=O)CC4)CC3)cc2)ccc1F [Compound I-375, (S)-3-(5-(4-((1-(4-((3S,4R)-3-(4-fluoro-3-methylphenyl)-7-hydroxyisochroman-4-yl)phenyl)piperidin-4-yl)methyl)piperazin-1-yl)-1-oxoisoindolin-2-yl)piperidine-2,6-dione]
13 | ≥ 10000 | Cc1cc([C@@H]2OCc3cc(O)ccc3[C@@H]2c2ccc(N3CCC(CN4CCN(c5ccc6c(c5)CN([C@H]5CCC(=O)NC5=O)C6=O)CC4)CC3)cc2)ccc1F [Compound I-376, (S)-3-(5-(4-((1-(4-((3R,4S)-3-(4-fluoro-3-methylphenyl)-7-hydroxyisochroman-4-yl)phenyl)piperidin-4-yl)methyl)piperazin-1-yl)-1-oxoisoindolin-2-yl)piperidine-2,6-dione]
14 | 0.62 | Cc1cc(F)cc([C@H]2OCc3cc(O)ccc3[C@H]2c2ccc(N3CCC(CN4CCN(c5ccc6c(c5)CN([C@H]5CCC(=O)NC5=O)C6=O)CC4)CC3)cc2)c1 [Compound I-377, (S)-3-(5-(4-((1-(4-((3S,4R)-3-(3-fluoro-5-methylphenyl)-7-hydroxyisochroman-4-yl)phenyl)piperidin-4-yl)methyl)piperazin-1-yl)-1-oxoisoindolin-2-yl)piperidine-2,6-dione]
15 | ≥ 10000 | Cc1cc(F)cc([C@@H]2OCc3cc(O)ccc3[C@@H]2c2ccc(N3CCC(CN4CCN(c5ccc6c(c5)CN([C@H]5CCC(=O)NC5=O)C6=O)CC4)CC3)cc2)c1 [Compound I-378, (S)-3-(5-(4-((1-(4-((3R,4S)-3-(3-fluoro-5-methylphenyl)-7-hydroxyisochroman-4-yl)phenyl)piperidin-4-yl)methyl)piperazin-1-yl)-1-oxoisoindolin-2-yl)piperidine-2,6-dione]
16 | 0.42 | O=C1CCN(c2ccc(N3CCC4(CCN(CC5CCN(c6ccc([C@@H]7c8ccc(O)cc8CO[C@@H]7c7ccccc7)cc6)CC5)C4)CC3)cc2)C(=O)N1 [Compound I-391, 1-(4-(2-((1-(4-((3S,4R)-7-hydroxy-3-phenylisochroman-4-yl)phenyl)piperidin-4-yl)methyl)-2,8-diazaspiro[4.5]decan-8-yl)phenyl)dihydropyrimidine-2,4 (1H,3H)-dione]
17 | 0.13 | Cc1cc(N2CCC3(CCN(CC4CCN(c5ccc([C@@H]6c7ccc(O)cc7CO[C@@H]6c6ccccc6)cc5)CC4)C3)CC2)ccc1N1CCC(=O)NC1=O [Compound I-392, 1-(4-(2-((1-(4-((3S,4R)-7-hydroxy-3-phenylisochroman-4-yl)phenyl)piperidin-4-yl)methyl)-2,8-diazaspiro[4.5]decan-8-yl)-2-methylphenyl)dihydropyrimidine-2,4 (1H,3H)-dione]
18 | 0.36 | Cn1nc(C2CCC(=O)NC2=O)c2ccc(N3CCN(CC4CCN(c5ccc([C@@H]6c7ccc(O)cc7CO[C@@H]6c6ccccc6)cc5)CC4)CC3)cc21 (stereo partly drawn) [Compound I-393, 3-[6-[4-[[1-[4-[(3S,4R)-7-hydroxy-3-phenyl-isochroman-4-yl]phenyl]-4-piperidyl]methyl]piperazin-1-yl]-1-methyl-indazol-3-yl]piperidine-2,6-dione]
19 | 0.99 | Cn1nc(N2CCC(=O)NC2=O)c2ccc(N3CCN(CC4CCN(c5ccc([C@@H]6c7ccc(O)cc7CO[C@@H]6c6ccccc6)cc5)CC4)CC3)cc21 [Compound I-396, 1-(6-(4-((1-(4-((3S,4R)-7-hydroxy-3-phenylisochroman-4-yl)phenyl)piperidin-4-yl)methyl)piperazin-1-yl)-1-methyl-1H-indazol-3-yl)dihydropyrimidine-2,4 (1H,3H)-dione]
